Tests used:
KDM5A = assay: MALDI–TOF MS demethylation/+16 Da assay, KDM5A; format: biochemical, human; settings: 90 min
Description: (§1) Fig. 2 Histone H2a fragments are KDM5 and KDM4 substrates. […] See Supplementary Table 6 and Supplementary Fig. 2 for assay conditions and quantification, respectively. […] 0-minute MS spectrum in black, 60/90-minute spectrum in red.
(§2) MS-based screening assays with peptides and calf thymus histones were as reported; see Supplementary Table 6 for conditions. Time course assays were based on reported procedures. In brief, equal volumes of the enzyme and substrate solutions were combined to initiate the reaction; 10 µL of 2% (v/v) formic acid (HCOOH) in ddH2O or 100% methanol was added to 10 µL of the reaction mixture to quench reactions at different time points. Unless otherwise stated, time course assays were carried out in triplicate. In some cases, LC–MS was used instead of MALDI-TOF MS to avoid a MALDI matrix induced artefact with the hydroxylated product (Supplementary Fig. 16). […]
(§3) Supplementary Figure 2 Histone H2a peptide fragments are substrates of KDM4s and KDM5s.
(§4) 2 for representative corresponding MALDI–TOF MS traces. Bar graphs comparing % product format ion (+16 Da and demethylation) of H2a(1–20)R3me2a by (a) K DM5 A–D (after 90 minutes) and (b) KDM4A–E ( a ft er 60 minutes), analysed by MALDI– TOF MS. n = (a) 2, (b) 3 (independent assays). See Supplementary Table 6 for assay condit ions. See Figure S13 A 1 for a positive control.
(§5) (also on this page, place not known: formation KDM5A–D (after MALDI–TOF conditions. Figure S13A1 KDM4A KDM4B KDM4C KDM4D KDM4E 80% product formation KDM5A KDM5B KDM5C KDM5D % product formation) […]
(§6) [ E nz ym e] [Peptide] [2OG] [Ascorbate] [(NH4)2F e(S O4)2] [TCEP] Buffer pH7.5 Enzyme Cognate substrate (mM) (mM) (mM) (mM) (mM) (mM) [HE PE S]
(§7) Supplementary Table 6 Summary of MS assay conditions for substrate screening. These conditions enabled efficient turnover of established substrates. Reactions were carried out at 37 °C unless otherwise st ated. […]

KDM5B = assay: MALDI–TOF MS demethylation/+16 Da assay, KDM5B; format: biochemical, human; settings: 90 min
Description: as §1, §2, §3, §4, §5, §6, §7

Ac - SGR [ me 2a ] GKQ GGKAR AKAKT R SSR [H2a(1–20)R3me2a, H2a(1–20)R3me2a without a biotin tag]
+16 Da (% product formation) (KDM5A; replicate 1): 0%
demethylation (% product formation) (KDM5A; replicate 1): 52.427%
+16 Da (% product formation) (KDM5A; replicate 2): 0%
demethylation (% product formation) (KDM5A; replicate 2): 53.348%
+16 Da (% product formation) (KDM5B; replicate 1): 0%
demethylation (% product formation) (KDM5B; replicate 1): 23.54%
+16 Da (% product formation) (KDM5B; replicate 2): 0%
demethylation (% product formation) (KDM5B; replicate 2): 18.654%

— article PMC11603075 (Communications Biology, 2024)
